From patent publication US11613546B2, “Substituted pyridotriazine compounds and uses thereof” (Gilead Sciences, Inc., priority 2021, dated 2023)
pEC50: −log10 of the molar value. Where two headings read alike, the source gives them in different places.

Assays:
Format in all cases: cell-based
HIV-1 (IIIB) = assay: Antiviral assay in MT-4 cells; conditions: HIV-1 IIIB infected MT-4 cells, 5 days, Cell Titer Glo, read-out: MT4 EC50
Method in brief: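 MT-4 cells infected with a 1:250 dilution of HIV-1 IIIB stock were incubated with serially diluted (1:3) compound for 5 days at 37 °C. Viability read by Cell Titer Glo luminescence; EC50 is the concentration giving 50% decrease in signal, from sigmoidal dose-response fits.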

MT-4 cells = assay: Cytotoxicity assay in MT-4 cells
Method in brief: (§1)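 Uninfected MT-4 cells were incubated with 1:3 serially diluted compound in RPMI/10% FBS for 5 days at 37° C. Viability was read by CellTiter-Glo luminescence, with 10 μM puromycin as the baseline cytotoxicity control. Values are the concentration giving a 50% decrease in luminescence, from sigmoidal dose-response fits.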

pLai RLuc reporter virus = assay: HIV MT-4 serum shift antiviral reporter assay; conditions: for pEC50: 72 h, Renilla Glo; for EC50: Human immunodeficiency virus 1, 72 h
Method in brief: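 MT-4 cells pre-infected with pLai RLuc virus for 2 h at 37 °C, then incubated 72 h at 37 °C with compound in medium (RPMI, 10% FBS) with or without 50% human serum; Renilla luminescence read. EC50 from sigmoidal fit; serum shift = EC50(HS/CCM)/EC50(CCM).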

[1] = Cytotoxicity assay in MT-4 cells; conditions: human
Method in brief: as §1

[2] = uninfected MT-4 cells, 5 days, Cell Titer Glo, read-out: CC50
[3] = HS/CCM: 50% human serum, read-out: RLUC 50% HS
[4] = cell culture media (RPMI, 10% FBS), read-out: RLUC CCM
[5] = Human immunodeficiency virus 1, IIIB, MT4, 120 h
[6] = read-out: RLUC 50% HS (nM), HS/CCM: 50% human serum, 72 h, Renilla Glo
[7] = read-out: RLUC CCM (nM), cell culture media (RPMI, 10% FBS), 72 h, Renilla Glo

## C[C@@H]1C[C@@H](F)[C@@H](F)CN2CN1n1cc(C(=O)NCc3ccc(F)cc3F)c(=O)c(O)c1C2=O (single isomer, unassigned) [Example C38]
HIV-1 (IIIB)
  pEC50: 8.82
MT-4 cells; [2]
  CC50: 13.6 µM
pLai RLuc reporter virus; [3]
  pEC50: 7.77
pLai RLuc reporter virus; [4]
  pEC50: 8.96

## O=C(NCc1c(F)cc(F)cc1F)c1cn2c(c(O)c1=O)C(=O)N1Cc3cc(F)ccc3CN2C1 [Example C1, (6R)-10-fluoro-1-hydroxy-2,14-dioxo-N-(2,4,6-trifluorobenzyl)-2,7,12,14-tetrahydro-6,13-methanobenzo[g]pyrido[1,2-b][1,2,5]triazonine-3-carboxamide]
HIV-1 (IIIB)
  pEC50: 7.70
MT-4 cells; [2]
  CC50: 10.1 µM
pLai RLuc reporter virus; [3]
  pEC50: 7.52
pLai RLuc reporter virus; [4]
  pEC50: 8.50

## O=C(NCc1c(F)cc(F)cc1F)c1cn2c(c(O)c1=O)C(=O)N1Cc3ccc(F)cc3CN2C1 [Example C2, (6R)-9-fluoro-1-hydroxy-2,14-dioxo-N-(2,4,6-trifluorobenzyl)-2,7,12,14-tetrahydro-6,13-methanobenzo[g]pyrido[1,2-b][1,2,5]triazonine-3-carboxamide]
HIV-1 (IIIB)
  pEC50: 7.74
MT-4 cells; [2]
  CC50: 12.8 µM
pLai RLuc reporter virus; [3]
  pEC50: 7.32
pLai RLuc reporter virus; [4]
  pEC50: 8.54

## O=C(NCc1c(F)cc(F)cc1F)c1cn2c(c(O)c1=O)C(=O)N1Cc3cc(F)ccc3CN2C1 [Example C3, (6S)-10-fluoro-1-hydroxy-2,14-dioxo-N-(2,4,6-trifluorobenzyl)-2,7,12,14-tetrahydro-6,13-methanobenzo[g]pyrido[1,2-b][1,2,5]triazonine-3-carboxamide]
HIV-1 (IIIB)
  pEC50: 8.77
MT-4 cells; [2]
  CC50: 13.4 µM
pLai RLuc reporter virus; [3]
  pEC50: 8.57
pLai RLuc reporter virus; [4]
  pEC50: 9.41

## O=C(NCc1c(F)cc(F)cc1F)c1cn2c(c(O)c1=O)C(=O)N1Cc3ccc(F)cc3CN2C1 [Example C4, (6S)-9-fluoro-1-hydroxy-2,14-dioxo-N-(2,4,6-trifluorobenzyl)-2,7,12,14-tetrahydro-6,13-methanobenzo[g]pyrido[1,2-b][1,2,5]triazonine-3-carboxamide]
HIV-1 (IIIB)
  pEC50: 8.92
MT-4 cells; [2]
  CC50: 12 µM
pLai RLuc reporter virus; [3]
  pEC50: 8.22
pLai RLuc reporter virus; [4]
  pEC50: 9.27

## C[C@@H]1C/C=C\[C@H](C)N2CN1n1cc(C(=O)NCc3c(F)cc(F)cc3F)c(=O)c(O)c1C2=O [Example C7, (1S,2R,6S,Z)-9-hydroxy-2,6-dimethyl-8,10-dioxo-N-(2,4,6-trifluorobenzyl)-3,6,8,10-tetrahydro-2H-1,7-methanopyrido[1,2-b][1,2,5]triazecine-11-carboxamide]
HIV-1 (IIIB)
  pEC50: 8.68
MT-4 cells; [2]
  CC50: 9.19 µM
pLai RLuc reporter virus; [3]
  pEC50: 6.76
pLai RLuc reporter virus; [4]
  pEC50: 9.46

## C[C@@H]1CCCCN2CN1n1cc(C(=O)NCc3ccc(F)cc3F)c(=O)c(O)c1C2=O [Example C15, (1R,2R)—N-(2,4-difluorobenzyl)-9-hydroxy-2-methyl-8,10-dioxo-3,4,5,6,8,10-hexahydro-2H-1,7-methanopyrido[1,2-b][1,2,5]triazecine-11-carboxamide]
HIV-1 (IIIB)
  pEC50: 8.72
MT-4 cells; [2]
  CC50: 9.97 µM

## C[C@@H]1/C=C\C[C@@H](C)N2CN1C(=O)c1c(O)c(=O)c(C(=O)NCc3c(F)cc(F)cc3F)cn12 [Example C18, (1S,2R,6R,Z)-9-hydroxy-2,6-dimethyl-8,10-dioxo-N-(2,4,6-trifluorobenzyl)-3,6,8,10-tetrahydro-2H-1,7-methanopyrido[1,2-b][1,2,5]triazecine-11-carboxamide]
HIV-1 (IIIB)
  pEC50: 8.37
MT-4 cells
  CC50: 13.4 µM

## C[C@H]1/C=C\C[C@H](C)N2CN1C(=O)c1c(O)c(=O)c(C(=O)NCc3c(F)cc(F)cc3F)cn12 [Example C20, (1S,2S,6S,Z)-9-hydroxy-2,6-dimethyl-8,10-dioxo-N-(2,4,6-trifluorobenzyl)-3,6,8,10-tetrahydro-2H-1,7-methanopyrido[1,2-b][1,2,5]triazecine-11-carboxamide]
HIV-1 (IIIB)
  pEC50: 8.46
MT-4 cells; [2]
  CC50: 16.6 µM

## C[C@@H]1C(F)=C[C@H](C)N2CN1n1cc(C(=O)NCc3c(F)cc(F)cc3F)c(=O)c(O)c1C2=O [Example C36, (1S,2R,5S)-3-fluoro-8-hydroxy-2,5-dimethyl-7,9-dioxo-N-(2,4,6-trifluorobenzyl)-2,5,7,9-tetrahydro-1,6-methanopyrido[1,2-b][1,2,5]triazonine-10-carboxamide]
HIV-1 (IIIB)
  pEC50: 8.80
MT-4 cells; [2]
  CC50: 16.6 µM

## C[C@H]1C=CC(C)(C)N2CN1C(=O)c1c(O)c(=O)c(C(=O)NCc3c(F)cc(F)cc3F)cn12 [Example C48, (1S,5S)-8-hydroxy-2,2,5-trimethyl-7,9-dioxo-N-(2,4,6-trifluorobenzyl)-2,5,7,9-tetrahydro-1,6-methanopyrido[1,2-b][1,2,5]triazonine-10-carboxamide]
HIV-1 (IIIB)
  pEC50: 8.82
MT-4 cells; [2]
  CC50: 50 µM

## C[C@@H]1N2CN([C@@H](C)CC1(F)F)n1cc(C(=O)NCc3ccc(F)cc3F)c(=O)c(O)c1C2=O [Example C59, (1S,2S,5S)—N-(2,4-difluorobenzyl)-4,4-difluoro-8-hydroxy-2,5-dimethyl-7,9-dioxo-2,3,4,5,7,9-hexahydro-1,6-methanopyrido[1,2-b][1,2,5]triazonine-10-carboxamide]
HIV-1 (IIIB); [5]
  pEC50: 8.55
MT-4 cells; [2]
  CC50: 50 µM

## C[C@H]1C=C[C@@]2(CCOC2)N2CN1C(=O)c1c(O)c(=O)c(C(=O)NCc3c(F)cc(F)cc3F)cn12 [Example C85, (1′S,3R,5′S)-8′-hydroxy-5′-methyl-7′,9′-dioxo-N-(2,4,6-trifluorobenzyl)-4,5,7′,9′-tetrahydro-2H,5′H-spiro[furan-3,2′-[1,6]methanopyrido[1,2-b][1,2,5]triazonine]-10′-carboxamide]
MT-4 cells; [2]
  CC50: 29 µM

## C[C@@H]1[C@H]2C[C@H]2[C@H](C)N2CN1n1cc(C(=O)NCc3c(F)cc(F)cc3F)c(=O)c(O)c1C2=O [Example C88, (1aS,2R,3S,11S,11aR)-8-hydroxy-2,11-dimethyl-7,9-dioxo-N-(2,4,6-trifluorobenzyl)-1a,2,7,9,11,11a-hexahydro-1H-3,10-methanocyclopropa[g]pyrido[1,2-b][1,2,5]triazonine-6-carboxamide]
HIV-1 (IIIB)
  pEC50: 8.96
MT-4 cells; [2]
  CC50: 34.3 µM

## C[C@H]1C=C[C@@H](CF)N2CN1n1cc(C(=O)NCc3ccc(F)cc3F)c(=O)c(O)c1C2=O [Example C97, (1R,2S,5S)—N-(2,4-difluorobenzyl)-5-(fluoromethyl)-8-hydroxy-2-methyl-7,9-dioxo-2,5,7,9-tetrahydro-1,6-methanopyrido[1,2-b][1,2,5]triazonine-10-carboxamide]
HIV-1 (IIIB); [5]
  pEC50: 7.46
[1]; [2]
  CC50 at 5 days: 9550 nM
pLai RLuc reporter virus; [6]
  EC50: 1730 nM
pLai RLuc reporter virus; [7]
  EC50: 14.7 nM

## C[C@@H]1CC[C@H](CF)N2CN1n1cc(C(=O)NCc3ccc(F)cc3F)c(=O)c(O)c1C2=O [Example C98, (1S,2R,5R)—N-(2,4-difluorobenzyl)-5-(fluoromethyl)-8-hydroxy-2-methyl-7,9-dioxo-2,3,4,5,7,9-hexahydro-1,6-methanopyrido[1,2-b][1,2,5]triazonine-10-carboxamide]
HIV-1 (IIIB); [5]
  pEC50: 8.70
[1]; [2]
  CC50 at 5 days: 8930 nM
pLai RLuc reporter virus; [6]
  EC50: 462 nM
pLai RLuc reporter virus; [7]
  EC50: 1.03 nM

## C[C@@H]1C[C@H](F)[C@H](CF)N2CN1n1cc(C(=O)NCc3c(F)cc(F)cc3F)c(=O)c(O)c1C2=O [Example C99, (1S,2R,4S,5S)-4-fluoro-5-(fluoromethyl)-8-hydroxy-2-methyl-7,9-dioxo-N-(2,4,6-trifluorobenzyl)-2,3,4,5,7,9-hexahydro-1,6-methanopyrido[1,2-b][1,2,5]triazonine-10-carboxamide]
HIV-1 (IIIB); [5]
  pEC50: 8.77
[1]; [2]
  CC50 at 5 days: 9440 nM
pLai RLuc reporter virus; [6]
  EC50: 349 nM
pLai RLuc reporter virus; [7]
  EC50: 0.52 nM

## C[C@H]1C=CC2(CCC2)N2CN1C(=O)c1c(O)c(=O)c(C(=O)NCc3c(F)cc(F)cc3F)cn12 [Example C104, (1′S,5′S)-8′-hydroxy-5′-methyl-7′,9′-dioxo-N-(2,4,6-trifluorobenzyl)-7′,9′-dihydro-5′H-spiro[cyclobutane-1,2′-[1,6]methanopyrido[1,2-b][1,2,5]triazonine]-10′-carboxamide]
HIV-1 (IIIB); [5]
  pEC50: 8.85
[1]; CC50 (nM)
  CC50 at 5 days: 19700 nM
pLai RLuc reporter virus; [6]
  EC50: 140 nM
pLai RLuc reporter virus; [7]
  EC50: 0.44 nM

## C[C@H]1CCC2(CCC2)N2CN1C(=O)c1c(O)c(=O)c(C(=O)NCc3c(F)cc(F)cc3F)cn12 [Example C105, (1′S,5′S)-8′-hydroxy-5′-methyl-7′,9′-dioxo-N-(2,4,6-trifluorobenzyl)-4′,5′,7′,9′-tetrahydro-3′H-spiro[cyclobutane-1,2′-[1,6]methanopyrido[1,2-b][1,2,5]triazonine]-10′-carboxamide]
HIV-1 (IIIB); [5]
  pEC50: 8.52
[1]; CC50 (nM)
  CC50 at 5 days: 13600 nM
pLai RLuc reporter virus; [6]
  EC50: 998 nM
pLai RLuc reporter virus; [7]
  EC50: 1.38 nM

## CC[C@H]1C=C[C@H](C)N2CN1n1cc(C(=O)NCc3c(F)cc(F)cc3F)c(=O)c(O)c1C2=O [Example C106, (1S,2S,5S)-2-ethyl-8-hydroxy-5-methyl-7,9-dioxo-N-(2,4,6-trifluorobenzyl)-2,5,7,9-tetrahydro-1,6-methanopyrido[1,2-b][1,2,5]triazonine-10-carboxamide]
HIV-1 (IIIB); [5]
  pEC50: 8.77
[1]; [2]
  CC50 at 5 days: 18400 nM
pLai RLuc reporter virus; [6]
  EC50: 107 nM
pLai RLuc reporter virus; [7]
  EC50: 0.22 nM

## (1S,2R,5S)—N-(2,4-difluorobenzyl)-8-hydroxy-2,3,5-trimethyl-7,9-dioxo-2,5,7,9-tetrahydro-1,6-methanopyrido[1,2-b][1,2,5]triazonine-10-carboxamide [Example C62]
HIV-1 (IIIB)
  pEC50: 8.85
MT-4 cells
  CC50: 50 µM
